Legend:
[1] = system: Formosan subterranean termites (Coptotermes formosanus); assay: Test Example 1: mortality of termites released in a plastic cup with the sheet formulation; assay type: in vivo; settings: for Mortality (%): 2.5 g sheet formulation, 100 termites
Experimental: The sheet formulation obtained in Formulation example 1 or 2 (2.5 g) was put in a plastic cup (8.5 cm in diameter). The plastic cup was set inside a large cup having wet cotton for supplying moisture and 100 Formosan subterranean termites (Coptotermes formosanus) were released in the plastic cup. After 2, 4 and 8 weeks, the mortality of the termites was observed. Further, the same sheet formulation as Formulation example 2 except that hexaflumuron was used in place of bistrifluron was tested for reference.

[2] = system: Formosan subterranean termites; assay: Test Example 2: field test, sheet formulation buried at tree stumps damaged by termites; assay type: in vivo, Coptotermes formosanus; settings: conclusion from Table 2
Excerpt: In a place termites inhabit, two tree stumps (A and B) damaged by Formosan subterranean termites were found. The distance between A and B is about 500 m. Two wooden blocks (φ75 mm×78 mm) were buried near A and B, respectively.
After all the wooden blocks were damaged by the termites, each of about 60 g of the sheet formulation obtained in Formulation example 2 was buried in place of the damaged wooden blocks at A. On the other hand, the same sheet formulation as Formulation example 2 except that hexaflumuron was used in place of bistrifluron was used at B. Further, two of the sheet formulation were added at A and B respectively, after two weeks. […]
Soldiers are usually in their colony. At emergency, soldiers are observed.

Row | Compound | Mortality (%) ([1]; after 2 weeks) | Mortality (%) ([1]; after 4 weeks) | Mortality (%) ([1]; after 8 weeks) | rapidity of efficacy compared with hexaflumuron [2] | rapidity of efficacy compared with hexaflumuron ([1]; conclusion from Table 1)
1 | O=C(NC(=O)c1c(F)cccc1F)Nc1cc(Cl)c(OC(F)(F)C(F)F)c(Cl)c1 [Hexaflumuron, 1-[3,5-dichloro-4-(1,1,2,2-tetrafluoroethoxy)phenyl]-3-(2,6-difluorobenzoyl)urea] | 5 | 34 | 100 |  | 
2 | O=C(NC(=O)c1c(F)cccc1F)Nc1cc(C(F)(F)F)cc(C(F)(F)F)c1Cl [bistrifluron, N-[2-chloro-3,5-bis(trifluoromethyl)phenyl]-N′-(2,6-difluorobenzoyl)urea] |  |  |  | more rapid efficacy than hexaflumuron | more rapid efficacy than hexaflumuron

— patent US20030175319A1, “Method for controlling termite” (SUMITOMO CHEMICAL COMPANY, LIMITED, priority 2002, published 2003)
